Measured values taken from article PMC4195764, “Molecular mechanism of ligand recognition by membrane transport protein, Mhp1” (The EMBO Journal, 2014).

Key:
Mhp1 [1] = molecular target: T1, Mhp1 (Microbacterium maritypicum, UniProt D6R8X8); experiment: inhibition of […]-L-IMH uptake into E. coli cells expressing Mhp1; assay type: cell-based; parameters: gene hyuP; full-length membrane protein expressed in E. coli BL21(DE3) from pSHP11; settings: read-out: Apparent IC5_0
T1 sequence (D6R8X8 1-489): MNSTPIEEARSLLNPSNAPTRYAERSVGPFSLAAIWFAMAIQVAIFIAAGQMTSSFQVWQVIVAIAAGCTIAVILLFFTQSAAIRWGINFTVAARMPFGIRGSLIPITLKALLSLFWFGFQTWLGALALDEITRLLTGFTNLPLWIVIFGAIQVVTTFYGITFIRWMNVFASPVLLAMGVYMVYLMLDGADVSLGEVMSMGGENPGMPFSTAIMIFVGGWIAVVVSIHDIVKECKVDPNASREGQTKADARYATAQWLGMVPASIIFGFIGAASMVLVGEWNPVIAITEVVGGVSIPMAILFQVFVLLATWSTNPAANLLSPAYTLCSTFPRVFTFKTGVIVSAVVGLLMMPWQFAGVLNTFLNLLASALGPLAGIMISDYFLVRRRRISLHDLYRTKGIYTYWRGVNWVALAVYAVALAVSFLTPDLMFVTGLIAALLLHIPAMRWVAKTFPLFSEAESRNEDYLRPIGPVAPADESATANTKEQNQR

Mhp1 [2] = molecular target: T1, Mhp1; experiment: stopped-flow tryptophan spectrophotofluorimetry; assay type: binding; parameters: gene hyuP; full-length membrane protein expressed in E. coli BL21(DE3) from pSHP11; GFP-fusion purified for crystallography (details in supplement); settings: read-out: Apparent Kd
Text: stopped-flow tryptophan spectrophotofluorimetry on Mhp1

Mhp1 [3] = molecular target: T2, Mhp1 (Microbacterium maritypicum, UniProt D6R8X8, L363A); experiment: uptake of […]-L-NMH into E. coli cells expressing mutant; assay type: cell-based; settings: 50 μM labelled compound, 150 mM NaCl, pH 6.6, 15 s; not transported by wild type
T2 construct: gene hyuP; full-length membrane protein expressed in E. coli BL21(DE3) from pSHP11; GFP-fusion purified for crystallography (details in supplement)
T2 sequence (D6R8X8 whole entry L363A, the tested form may be a part): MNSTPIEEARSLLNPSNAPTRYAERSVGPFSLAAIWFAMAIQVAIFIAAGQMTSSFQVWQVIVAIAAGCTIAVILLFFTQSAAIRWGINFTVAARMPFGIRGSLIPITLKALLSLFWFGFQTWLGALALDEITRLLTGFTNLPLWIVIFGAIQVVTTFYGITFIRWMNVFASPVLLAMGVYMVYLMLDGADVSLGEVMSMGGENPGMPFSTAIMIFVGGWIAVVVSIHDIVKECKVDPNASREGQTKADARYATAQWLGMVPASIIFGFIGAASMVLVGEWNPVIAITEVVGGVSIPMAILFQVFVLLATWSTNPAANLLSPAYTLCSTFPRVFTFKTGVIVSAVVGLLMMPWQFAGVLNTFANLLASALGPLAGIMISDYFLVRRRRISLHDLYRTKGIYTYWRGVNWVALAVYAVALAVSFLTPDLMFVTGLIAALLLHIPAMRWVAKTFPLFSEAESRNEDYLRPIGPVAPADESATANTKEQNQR

IC50 (Mhp1 [1])	Kd (Mhp1 [2])	Compound	uptake of 14C-L-NMH into E. coli cells expressing mutant (Mhp1 [3])
38.8 ± 1.1 µM	2 ± 0.2 µM	O=C1NC(=O)C(=Cc2cccc(Br)c2)N1 (stereo in doubt) [BVH, (5E)-5-[(3-bromophenyl)methylidene] imidazolidine-2,4-dione]	–
–	130 ± 10 µM	O=C1NC(=O)[C@@H](Cc2ccccc2)N1 [D-BH]	–
–	20.6 ± 3.8 µM	O=C1NC(=O)[C@@H](Cc2c[nH]c3ccccc23)N1 [D-IMH]	–
17.1 ± 1.1 µM	1.8 ± 0.3 µM	O=C1NC(=O)[C@@H](Cc2ccc3ccccc3c2)N1 [D-NMH]	–
945 ± 1.1 µM	36 ± 1.4 µM	O=C1NC(=O)[C@H](Cc2ccccc2)N1 [L-BH, (5S)-5-benzylimidazolidine-2,4-dione]	–
119.2 ± 1.1 µM	19 ± 2 µM	O=C1NC(=O)[C@H](Cc2c[nH]c3ccccc23)N1 [L-IMH, (5S)-5-(1H-indol-3-ylmethyl)imidazolidine-2,4-dione]	–
14.9 ± 1.1 µM	3.6 ± 0.8 µM	O=C1NC(=O)[C@H](Cc2ccc3ccccc3c2)N1 [L-NMH, (5S)-5-(naphthalen-2-ylmethyl)imidazolidine-2,4-dione]	when Leu363 was mutated to an alanine, uptake was restored
